Reference: patent US20250170154A1 (GreenStone Biosciences, Inc., priority 2023, published 2025)

Key:
[1] = tested on: mice with cerulein-induced acute edematous pancreatitis; assay: Cerulein model of acute edematous pancreatitis; format: in vivo, mouse; details: 100 mg/Kg by gavage 30 minutes after first and fourth cerulein injections; initial findings
Description: Using the cerulein model, acute edematous pancreatitis was induced in two test groups of mice by eight hourly intraperitoneal injections of 50 μg/Kg cerulein, with control group mice receiving injections of physiological saline. Compound 2, at 100 mg/Kg, was administered to one of the cerulein groups by gavage 30 minutes after the first and fourth cerulein injections. Mice were sacrificed one hour after the last injection and tissues were collected for histological analysis. […] Recurrent acute pancreatitis (RAP) and chronic pancreatitis (CP) were induced by repetitive cerulein injections every third day over a span of 14 days (RAP) or 6 weeks (CP). Compound 2 was administered daily at 50 mg/Kg on the last 10 consecutive days for RAP and at 100 mg/Kg on the last 4 weeks for CP, with vehicle controls. Mice were sacrificed 1 day after the last cerulein injection and tissues were collected for histological analysis. In the CP model, the cerulein injections induced extensive acinar cell damage.

Myh6-Cre:FLNC^wt/F mouse = assay: FLNC knockout model, echocardiography; format: in vivo; details: 50 mg/Kg/day by gavage for 6 weeks
Description: The LMNA^H222P/H222P mouse is a well-established model for studying dilated cardiomyopathy and heart failure, with cardiac dysfunction typically beginning to manifest at around 16 weeks of age. In this study, 16-week-old LMNA^H222P/H222P mice underwent baseline echocardiography prior to treatment. Compound 2 was then administered continuously for 4 weeks using osmotic pumps, with DMSO as the vehicle control. At the end of the treatment period, echocardiography was performed again to assess the impact of compound 2 on cardiac function compared to the control group. […] In a FLNC knockout model using the Myh6-Cre:FLNC^wt/F mouse, 16-week-old mice underwent baseline echocardiography, were treated with compound 2 at 50 mg/Kg/day or vehicle by gavage for 6 weeks, and underwent echocardiography to assess the change in cardiac function. […] The genistein phosphate derivatives of this invention are therefore expected to be useful for the treatment of subjects with dilated cardiomyopathy.

O=c1c(-c2ccc(O)cc2)coc2cc(OCOP(=O)(O)O)cc(O)c12 [Compound 2, ((5-Hydroxy-3-(4-hydroxyphenyl)-4-oxo-4H-chromen-7-yl)oxy)methyl dihydrogen phosphate]
acute edematous pancreatitis marked by necrosis, inflammation and edema in the pancreas (histology) [1]: efficacious in reversing
contractility (fractional shortening) from baseline (Myh6-Cre:FLNC^wt/F mouse): statistically significantly improved
contractility over vehicle-treated animals (Myh6-Cre:FLNC^wt/F mouse): improved
left ventricular end-diastolic diameter (Myh6-Cre:FLNC^wt/F mouse; over vehicle-treated animals): reduced
left ventricular end-systolic diameter (Myh6-Cre:FLNC^wt/F mouse; over vehicle-treated animals): reduced
